Data reported in US8703822B2, “Method for removing undifferentiated and dedifferentiated stem cell” (Nanyang Polytechnic, priority 2009, dated 2014).
Converted amounts (≈) assume the structure as drawn. Read-outs that look alike come from different tables or passages of the source.

Experiments:
[1] = system: normal human primary astrocytes; assay: resazurin cell viability assay on normal human primary astrocytes (FIG. 8B); type: cell-based
hESCs = assay: light microscopy of hESC colonies cultured on murine feeder cells, hESC-selective killing; type: cell-based, human; details: for selective killing of hESCs (FIG. 4): 24 hr incubation; for lowest concentration at which cytotoxic effects were seen: 2.5 μg/mL = 8 μM; for killing of hESCs (light microscopic images, FIG. 2): JC010 12 and 24 hours, JC011 24 hours; for cytotoxic effect on undifferentiated hESCs (summary) / specificity (hESCs versus feeder cells), compared among JC010, JC011 and JC017: summary of the experimental data
Experimental: (§1) Using the above cell viability assays, various cell types including hESCs, differentiated hESCs, human primary astrocytes and murine feeder cells (mouse embryonic fibroblasts (MEFs)) were treated with one of the analogues synthesized in Examples 1 to 3. The cells were then visualized with 5×, 10×, 20× and 40× objectives using dark field, phase optics and fluorescence microscopy with an Olympus IX51 inverted microscope or Leica MZ8 stereomicroscope.
(§2) In the phase contrast optics images (FIGS. 1A and 1B), the hESCs are seen as dark colonies surrounded by the murine feeder cells (mouse embryonic fibroblasts (MEFs)). In the dark field images (FIGS. 1C and 1D), the hESCs are seen as bright colonies surrounded by the murine feeder cells (mouse embryonic fibroblasts (MEFs)).

undifferentiated hESCs = assay: dose response curves on undifferentiated hESCs (FIG. 11A); type: cell-based, human; details: from dose response curve FIG. 11A
From the text: In other words, JC010 and JC011 were very cytotoxic against undifferentiated hESCs. It can also be seen from the dose response curve in FIG. 11B, that both analogues were not cytotoxic to differentiated cells.

hESC = assay: Trypan Blue cell viability assay on hESC; type: cell-based, human; details: 40 μM; 24 hours (JC011 also 48 hr), compared to untreated hESC
Experimental: The images on the left (A and B) show untreated hESC while the images on the right (C and D) show hESC treated with 40 μM of JC010 for 24 hours. The arrows indicate trypan blue positive dead cells.
The Trypan Blue cell viability assay was conducted by first diluting 10 μL of a cell suspension with 10 μL of 0.4% w/v Trypan Blue solution. The cell suspension and Trypan Blue solution were mixed using a pipette, after which the mixture was incubated at room temperature for 10 minutes. 20 μL of the mixture was then loaded into a charged hemocytometer for visualization under 10× and 20× magnification phase optics microscopy. Cells which stain blue are dead cells.

[2] = system: differentiated hESCs (H1); type: cell-based
Experimental: (§3) The resazurin cell viability assay was conducted on hESC, differentiated hESCs, osteoblasts, murine feeder cells (mouse embryonic fibroblasts (MEFs)), IPSCs derived from foreskin (IPS-DF19-9 and IPS-foreskin) and CSCs (colon CSCs and breast CSCs). The assay is based on the use of an indicator dye resazurin to measure the metabolic capacity of a cell. A viable cell would retain the ability to reduce resazurin to resorufin, which is a highly fluorescent compound.
(§4) The percentage of the resazurin activity was calculated based on the following equation:
(§5) The percentage of cell death was calculated based on the following equation: % cell death=100−% activity (Eq. 2)
(§6) The cells were plated in a 96-well multi-well plate 5 days before the assay. 200 μL of medium containing 10^5/mL cells (i.e. 2×10^4 cells) were used for each well.
The cells were then treated with 12.5 μg/mL of the capsaicin analogues. The final concentration of DMSO used as control was 1% v/v.
[…] The media was then removed from the wells and 100 μL of PBS buffer was added to each well. 20 μL of resazurin was added to each well to give a final resazurin concentration of 8 μg/mL. The plates were further incubated at 37° C. for 2 h, after which the plate was read at an excitation wavelength of 535 nm and an emission wavelength of 590 nm with a Tecan Infinite 200 microplate reader.
bGFG is a critical growth factor that maintains the hESCs in the undifferentiated state. Removal or withdrawal of bGFG induces hESCs to undergo differentiation.

[3] = system: murine feeder cells (mouse embryonic fibroblasts (MEFs)), J28 C57/BL6J cells; assay: resazurin cell viability assay on murine feeder cells (FIG. 7B); type: cell-based; details: 40 μM, 24 hr and 48 hr; versus JC005, capsaicin (CAP) and DMSO
Experimental: (§7) The hESCs used are undifferentiated H1 cells, while the murine feeder cells (mouse embryonic fibroblasts (MEFs)) used are J28 C57/BL6J cells. The columns represent the means of 4 experiments while the bars represent relative fluorescence ±s.d. The control was untreated hESCs and untreated murine feeder cells (mouse embryonic fibroblasts (MEFs)) with a final DMSO concentration of 1% v/v while the final sample concentration was 40 μM. * denotes P<0.01, Student's T-test, 2-tail.
(§8) The resazurin cell viability assay was conducted on hESC, differentiated hESCs, osteoblasts, murine feeder cells (mouse embryonic fibroblasts (MEFs)), IPSCs derived from foreskin (IPS-DF19-9 and IPS-foreskin) and CSCs (colon CSCs and breast CSCs). The assay is based on the use of an indicator dye resazurin to measure the metabolic capacity of a cell. […]
(§9) In wells A12-H12, 200 μl/well DMSO were added to provide the Blank reading.
as §4
(§10) The percentage of cell death was calculated based on the following equation: % cell death=100−% activity (Eq. 2) […]
(§11) […] The plates were further incubated at 37° C. for 2 h, after which the plate was read at an excitation wavelength of 535 nm and an emission wavelength of 590 nm with a Tecan Infinite 200 microplate reader.

[4] = system: breast CSC cell line (Celprogen Cat#36102-29P-T25); assay: resazurin cell viability assay on breast CSC cell line; type: cell-based; details: 12.5 μg/mL, FIG. 14
[5] = system: undifferentiated hESCs (H1 cells); assay: resazurin cell viability assay on undifferentiated H1 hESCs (FIG. 7A); type: cell-based, human; details: 40 μM, 24 hr and 48 hr; versus JC005, capsaicin (CAP) and DMSO
Experimental: as §7, §8, §9, §4, §10, §11

IPS-DF19-9 cells = assay: resazurin cell viability assay on IPS-DF19-9 cells; type: cell-based; details: 12 μg/mL, 16-hour exposure
Experimental: as §3, §4, §5, §6
(§12) The cells were then incubated at 37° C. for about 16 h overnight in 5% CO2. The media was then removed from the wells and 100 μL of PBS buffer was added to each well. 20 μL of resazurin was added to each well to give a final resazurin concentration of 8 μg/mL. The plates were further incubated at 37° C. for 2 h, after which the plate was read at an excitation wavelength of 535 nm and an emission wavelength of 590 nm with a Tecan Infinite 200 microplate reader. […]

Wicell H1 cells = assay: dichlorofluorescin diacetate (DCFH-DA) analysis of reactive oxygen species; type: cell-based, human; details: 12.5 μg/mL, 3 hr
Experimental: Live adherent cells were washed with PBS solution. DCHF-DA solution was then added to the cells in PBS solution at a final working concentration of 10 μM. The mixture was then incubated at room temperature for 5 minutes, and visualized under a fluorescence microscope with FITC filters. Bright green fluorescent cells are indicative of cells with a high content of reactive oxygen species (ROS).

IPS-foreskin cells = assay: resazurin cell viability assay on IPS-foreskin cells; type: cell-based; details: 12 μg/mL, 16-hour exposure
Experimental: as §3, §4, §5, §6, §12

[6] = system: colon CSC cell line (Celprogen Cat#36112-39P-T25); details: 12.5 μg/mL, FIG. 13
[7] = system: murine feeder cells (mouse embryonic fibroblasts (MEFs)); assay: light microscopy of murine feeder cells co-cultured with hESCs; type: cell-based; details: summary of the experimental data
Experimental: as §1, §2

CSCs = assay: cytotoxic effect on CSCs, summary over colon and breast CSC lines; type: cell-based; details: summary of the experimental data
Experimental: Seven analogues having different side chain lengths (JC010, JC011, JC017, JC040, JC048, JC049 and JC050) were tested for their cytotoxic effect on CSCs using the resazurin cell viability assay. Two CSC cell lines were used, a colon CSC cell line (Celprogen Cat#36112-39P-T25) and a breast CSC cell line (Celprogen Cat#36102-29P-T25).

[8] = comparison value, source not given; cited from earlier work

CCCCCCCCC(=O)NCc1ccc(OC)c(O)c1 [JC005]
cell death of normal human primary astrocytes ([1]; 40 μM, FIG. 8B): not cytotoxic
selective killing of hESCs (FIG. 4) (hESCs; 12.5 μg/mL (40 μM)): No such killing effect
cell death of hESCs (BGO1v) (hESC cell line BGO1v; 40 μM, FIG. 8A): not cytotoxic

CCCCCCCCNC(=O)NCc1ccc(O)c(O)c1 [JC010]
cell death of normal human primary astrocytes [1]: low percentages of cell death
IC50 (undifferentiated hESCs; Homo sapiens): ~2.5 µg/mL (≈ 8.49 µM)
selective killing of hESCs (FIG. 4) (hESCs; 2.5 μg/mL (8 μM)): selectively killed
lowest concentration at which cytotoxic effects were seen (hESCs): 2.5 µg/mL
selective killing of hESCs (FIG. 4) (hESCs; 12.5 μg/mL (40 μM)): selectively killed
killing of hESCs (light microscopic images, FIG. 2) (hESCs; 40 μM): selective and rapid killing of hESCs
cytotoxic effect on undifferentiated hESCs (summary) (hESCs): particularly high cytotoxic effect
killing of hESC in Trypan Blue assay (FIGS. 5 and 6) (hESC): wide spread killing of hESC
cytotoxic effect on differentiated cells (summary) [2]: relatively low
cytotoxicity to differentiated cells (dose response curve) [2]: not cytotoxic
relative fluorescence of treated murine feeder cells [3]: not significantly different
cell death of hESCs (BGO1v) (hESC cell line BGO1v): high percentages of cell death
cell death, breast CSC cell line [4]: about 15%
relative fluorescence of treated undifferentiated hESCs (H1 cells) [5]: significantly lower

CCCCCCCCC(=O)NCc1ccc(O)c(O)c1 [JC011]
cell death of normal human primary astrocytes [1]: low percentages of cell death
IC50 (in words) (undifferentiated hESCs): at the nanogram level
selective killing of hESCs (FIG. 4) (hESCs; 2.5 μg/mL (8 μM)): selectively killed
lowest concentration at which cytotoxic effects were seen (hESCs): 2.5 µg/mL
selective killing of hESCs (FIG. 4) (hESCs; 12.5 μg/mL (40 μM)): selectively killed
killing of hESCs (light microscopic images, FIG. 2) (hESCs; 40 μM): selective and rapid killing of hESCs
cytotoxic effect on undifferentiated hESCs (summary) (hESCs): particularly high cytotoxic effect
specificity (hESCs versus feeder cells), compared among JC010, JC011 and JC017 (hESCs): highest specificity
IPS-DF19-9 cells killed compared to the control (IPS-DF19-9 cells): about 67%
IPS-DF19-9 cells remained alive (IPS-DF19-9 cells): 33%
killing of hESC in Trypan Blue assay (FIGS. 5 and 6) (hESC): wide spread killing of hESC
ROS content compared to untreated cells (Wicell H1 cells): decreased significantly
cytotoxic effect on differentiated cells (summary) [2]: relatively low
cytotoxicity to differentiated cells (dose response curve) [2]: not cytotoxic
killing of differentiated hESCs (relative fluorescence versus control) ([2]; 40 μM, 24 hr, bGFG withdrawn, FIG. 9): did not kill differentiated hESCs
relative fluorescence of treated murine feeder cells [3]: not significantly different
IPS-foreskin cells killed compared to the control (IPS-foreskin cells): about 62%
IPS-foreskin cells remained alive (IPS-foreskin cells): 38%
cell death of hESCs (BGO1v) (hESC cell line BGO1v): high percentages of cell death
cell death, breast CSC cell line [4]: about 15%
relative fluorescence of treated undifferentiated hESCs (H1 cells) [5]: significantly lower

CCCCCCNC(=O)NCc1ccc(O)c(O)c1 [JC017]
cell death of normal human primary astrocytes [1]: low percentages of cell death
killing effect on hESCs (light microscopic images, FIG. 3) (hESCs; 40 μM, 12 hours, compared to FIG. 2): not as selective nor as potent as the effect of the analogues JC010 and JC011
cytotoxic effect on undifferentiated hESCs (summary) (hESCs): particularly high cytotoxic effect
specificity (hESCs versus feeder cells), compared among JC010, JC011 and JC017 (hESCs): lowest specificity
cell death of hESCs (BGO1v) (hESC cell line BGO1v): high percentages of cell death
cell death, colon CSC cell line [6]: 15-33%
cell death, breast CSC cell line [4]: about 15%
killing of feeder cells (summary) [7]: some feeder cells were also killed

CCCCCCNC(=O)Cc1cc(O)ccc1O [JC025]
selective cytotoxic activity towards undifferentiated or dedifferentiated stem cells (hESC cell line BGO1v): did not exhibit any selective cytotoxic activity

CCCCCCCCNC(=O)Cc1cc(O)ccc1O [JC026]
selective cytotoxic activity towards undifferentiated or dedifferentiated stem cells (hESC cell line BGO1v): did not exhibit any selective cytotoxic activity

CCCCCCCCCC(=O)NCc1ccc(O)c(O)c1 [JC040]
cell death, colon CSC cell line [6]: ~45%
cell death, breast CSC cell line [4]: 25-35%
cytotoxic effect on CSCs (summary) (CSCs): high cytotoxic effect

CCCCCCCCCCCC(=O)NCc1ccc(O)c(O)c1 [JC048]
cell death, colon CSC cell line [6]: ~45%
cell death, breast CSC cell line [4]: ~55%
cytotoxic effect on CSCs (summary) (CSCs): high cytotoxic effect

CCCCCCCCCCC(=O)NCc1ccc(O)c(O)c1 [JC049]
cell death, colon CSC cell line [6]: 15-33%
cell death, breast CSC cell line [4]: 25-35%
cytotoxic effect on CSCs (summary) (CSCs): high cytotoxic effect

CCCCCCCCCCCCCC(=O)NCc1ccc(O)c(O)c1 [JC050]
cell death, breast CSC cell line [4]: 25-35%

COc1cc(CNC(=O)CCCC/C=C/C(C)C)ccc1O [capsaicin]
concentration for in vitro cytotoxic effect [8]: 100 µM
